This is an account of results in patent US20260014278A1, “HYBRID PEPTIDE DENDRIMER SYSTEMS AND EXTRAHEPATIC DELIVERY” (NUNTIUS THERAPEUTICS LIMITED, priority 2022, published 2026).

For assay [1], the system named is macrophage-polarised primary bone marrow derived monocytes. Briefly: eGFP mRNA transfection of macrophage-polarised primary mouse bone marrow derived monocytes, flow cytometry. The format is cell-based. The settings on record: GSCG1,2-RHL NP=0.6:1, GSCG1,2-RL, 3-LR NP=0.16:1, GSCG1,RL, 2-LR NP=8:1, DOTMA:DOPE w/w 10:1, lipid-only DOTMA/DOPE w/w 3.2:1, FIG. 2. The method, then: BMDM cells were isolated using the StemCell Tech EasySep Mouse Monocyte Isolation Kit from mouse bone marrow cell suspension. The cells were resuspended in complete medium (DMEM+1% glutamax+10% heat inactivated FBS+1% Pen/Strep) enriched with 50 ng/ml murine M-CSF (1:1000 of 50 μg/ml stock) at 1E+6 cells/mi. 2 million cells (i.e. 2 mL) was seeded in each well of 6-well plate(s). The plate was incubated at 37° C. for 4 days. Half media exchange was performed using complete media enriched with […] murine M-CSF and 40 ng/ml murine IL-4. Cells were then harvested the next day (day 5) by washing cells with PBS and a 10 minute incubation with 5 mM EDTA (diluted in PBS) at 37° C. followed by plate tapping and resuspension. […]
Data were collected using a BD LSRFortessa I analyser running […] software (Beckton Dickinson). All collected data were analysed using FlowJo 10.0 software.
Transfection efficiency of macrophage-polarised primary bone marrow derived monocytes using various peptide dendrimer/lipid nanoparticles was assessed and compared to lipid-only nanoparticles (LPX-RNA). Each nanoparticle, with or without dendrimer, included eGFP mRNA to allow analysis of absolute numbers of cells transfected to be assessed by flow cytometry. […]
Background: Flow cytometry measures light scatter and fluorescence of single cells or particles in a stream.

The subject of another assay is lung and spleen. As to the kind of experiment: Luciferase mRNA expression in mouse tissues after intravenous administration (bioluminescence). The conditions noted are these: 6 hours, DOTMA/DOPE w/w=23:1 to mRNA, dendrimers NP=0.6:1, FIG. 11. It counts as in vivo, Balb/c mice. The method, then:
All animal procedures were conducted following the Animal Research Reporting of In Vivo Experiments and approved by the UK Home Office for the conduct of regulated procedures under license. For the data underlying FIG. 11, Balb/c mice aged 4 weeks were purchased from Jackon's Laboratory and left to acclimate in the new housing environment for 1-week upon their arrival. All mice were weighed and warmed for 15 min at 37 C in a heating chamber. The formulations were delivered intravenously (5 mL/kg) via the tail vein using 30 G insulin syringes (BD biosciences).
All mice were imaged 6 hours post injection. BLI was performed using an IVIS Lumina II (Perkin Elmer) imaging system. Mice were administered D-luciferin (GoldBio) at a dose of 10 uL/g. Mice were anaesthetised in a chamber with 2.5% isoflurane and then placed on a heated imaging platform while being maintained on 2.5% isoflurane. For the data underlying FIG. 11, mice were imaged 10 min post administration of D-luciferin with an exposure time set at 45 sec to ensure the signal acquired was within an effective detection range (binning medium). Bioluminescence signal was quantified by measuring photon flux (photons/s) using the Living Image software (Perkin Elmer). […] The organs were placed in the centre of imaging platform (Lumina II system) and signal was measured using the acquisition settings detailed above. […]

For the substance (RHL)4(KRHL)2KGSC-NH2 [GSCG1,2-RHL], in assay [1], the transfection efficiency entry was “approximately 35%”. In the assay on lung and spleen, the “delivery of luciferase mRNA cargo to lung and spleen (bioluminescence)” value is “further improved”.
